The values that follow are results of earlier work, collected in patent publication EP4406531A1, “DOSAGE FORM FOR INTRA-ARTICULAR INJECTION […] AN […] IN THE TREATMENT OF CRYSTAL-AND NON-CRYSTAL […] IN[…]” (PK MED, priority 2023, dated 2024).

The conditions of this data set: literature (Niel et al. 2006).

Regarding `COc1cc2c(c(OC)c1OC)-c1ccc(OC)c(=O)cc1[C@@H](NC(C)=O)CC2` [colchicine, N-[(7S)-1,2,3,10-tetramethoxy-9-oxo-6,7-dihydro-5H-benzo[a]heptalen-7-yl]acetamide], the lethal dose is on record as 0.8 mg/kg and the toxicity limit is given as 0.1 mg/kg.
